Patent US7008961B1, “Composition and method for treating carcinoma” (priority 1995, dated 2006)
Read-outs that look alike come from different tables or passages of the source.

Columns and labels:
Swiss Webster mice = type: in vivo; conditions: s.c. every other day for 2 weeks
Experimental: The toxicity of two solvents for Rh-123, DMSO and alcohol-glucose, was studied in 60-day-old Swiss Webster mice (Simonsen Laboratories, Inc., Gilroy, Calif.). For each solvent there were five groups of five mice each, with the Rh-123 dose per group being 0, 2.0, 7.5, 15, and 20 mg/kg of body weight. A sixth group of five mice were not given any solvent or Rh-123. The solvents, with and without Rh-123, were administered at a concentration of 50% by volume DMSO in distilled water, and 5% alcohol by volume in a 5% by weight solution of glucose in distilled water. […] The concentration of Rh-123 was 5 mg/ml. Appropriate controls were utilized. The mice were injected subcutaneously every other day for 2 weeks.

[1] = tested on: autochthonous rat prostate complex adenocarcinoma (ARPCA); test: Induced autochthonous rat prostate adenocarcinoma in L-W rats; type: in vivo; conditions: 15 mg/kg BW s.c. every other day for six doses
Experimental: To determine the effectiveness of Rh-123 on induced autochthonous rat prostate adenocarcinoma developed within the prostate gland and seminal vesicles of L-W rats, thirteen L-W rats were inoculated intravenously with acidified MNU (30 mg/kg of body weight (BW)). Following the single inoculation of MNU, the rats were each implanted subcutaneously with 50 mg TP sealed in a silastic tube. Three implants of TP were administered, each at intervals of 2 months. After a latent period of 4–6 months, small palpable tumors were detected in the abdomen. The rats were then administered Rh-123 (15 mg/kg BW) subcutaneously every other day for six doses. The Rh-123 was dissolved in a 5% (by volume) ethanol-5% (by weight) glucose solution in sterile water at a concentration of 5 mg/ml. The rats were sacrificed 1 week after the last dose of Rh-123 and their tissues were fixed in 10% formalin.

[2] = tested on: PC-3 prostate cancer cells; test: MTT cytotoxicity/viability assay, PC-3; type: cell-based, human
Excerpt: (§1) Assays of Rh-123 toxicity were done with three human prostate cancer cell lines, […], et al.: Establishment and characterization of a human prostatic carcinoma cell line, Invest Urol 17:16-23, 1979), DU-145 (Stone […], et al.: Isolation of a human prostatic carcinoma cell line (DU145), Int J Cancer 21:274-281, 1978), and LNCaP (Horoszewitz J, Leong […], et al.: LNCaP model of human prostatic carcinoma, Cancer Res 43:1809-1818, 1983), and a non-tumorigenic diploid prostate fibroblast cell strain (NPF-209) derived in our laboratories from a normal adult prostate. The NPF cells were used as controls, i.e., for comparison. The cells were maintained in disposable plastic culture vessels in a 1:1 mix of Dulbecco's modified Eagle's medium and Ham's F12 (DMEM/F12, from Sigma Chemical Co, St. Louis, Mo.) supplemented with 10% fetal bovine serum (FBS, from HyClone Labs, Inc., Logan, Utah). 3-[4,5-Dimethylthiazol-2-yl]-2,5-diphenyltetrazolium bromide (MTT), DMSO, and other chemicals were also obtained from Sigma. […] Two different in vitro assays were used to assess cell viability following Rh-123 treatment, namely, • i) colony formation by a clonal assay procedure ([…], Ham R G: Clonal growth of human keratinocytes with small amounts of dialyzed serum, In Vitro 16:526-538, 1980); and • ii) viability of cells determined by the MTT assay utilizing previously described techniques (Alley […], Monks A, et al.: Feasibility of drug screening with panels of human tumor cell lines using a microculture tetrazolium assay, Cancer Res 40:589-601, 1988). Cytotoxicity due to Rh-123 treatment was determined with the human prostate cancer cells grown in 96-well disposable microtiter plates. […] The plates were next read at A540 […] with an Emax precision microplate reader (Molecular Devices Corporation, Menlo Park, Calif.). […] The cell-bound dye is dissolved with DMSO and spectrophotometrically quantitated by absorbance at a wavelength of 540 nm. The OD540 nm reading is a measure of the number of viable cells present in the test sample. […]

[3] = tested on: LNCaP prostate cancer cells; test: MTT cytotoxicity/viability assay, LNCaP; type: cell-based, human
Excerpt: (§2) Assays of Rh-123 toxicity were done with three human prostate cancer cell lines, […], et al.: Establishment and characterization of a human prostatic carcinoma cell line, Invest Urol 17:16-23, 1979), DU-145 (Stone […], et al.: Isolation of a human prostatic carcinoma cell line (DU145), Int J Cancer 21:274-281, 1978), and LNCaP (Horoszewitz J, Leong […], et al.: LNCaP model of human prostatic carcinoma, Cancer Res 43:1809-1818, 1983), and a non-tumorigenic diploid prostate fibroblast cell strain (NPF-209) derived in our laboratories from a normal adult prostate. The NPF cells were used as controls, i.e., for comparison. […] Two different in vitro assays were used to assess cell viability following Rh-123 treatment, namely, • i) colony formation by a clonal assay procedure ([…], Ham R G: Clonal growth of human keratinocytes with small amounts of dialyzed serum, In Vitro 16:526-538, 1980); and • ii) viability of cells determined by the MTT assay utilizing previously described techniques (Alley […], Monks A, et al.: Feasibility of drug screening with panels of human tumor cell lines using a microculture tetrazolium assay, Cancer Res 40:589-601, 1988). Cytotoxicity due to Rh-123 treatment was determined with the human prostate cancer cells grown in 96-well disposable microtiter plates. […] The OD540 nm reading is a measure of the number of viable cells present in the test sample. […]

[4] = tested on: DU-145 prostate cancer cells; test: MTT cytotoxicity/viability assay, DU-145; type: cell-based, human
Excerpt: as §1

[5] = tested on: NPF non-tumorigenic diploid prostate fibroblast cells; test: MTT cytotoxicity/viability assay, NPF; type: cell-based, human
Excerpt: as §2

[6] = tested on: PC-3 prostate cancer cells; test: Clonogenic assay (colony growth), PC-3; type: cell-based, human
Excerpt: (§3) Assays of Rh-123 toxicity were done with three human prostate cancer cell lines, […], et al.: Establishment and characterization of a human prostatic carcinoma cell line, Invest Urol 17:16-23, 1979), DU-145 (Stone […], et al.: Isolation of a human prostatic carcinoma cell line (DU145), Int J Cancer 21:274-281, 1978), and LNCaP (Horoszewitz J, Leong […], et al.: LNCaP model of human prostatic carcinoma, Cancer Res 43:1809-1818, 1983), and a non-tumorigenic diploid prostate fibroblast cell strain (NPF-209) derived in our laboratories from a normal adult prostate. The NPF cells were used as controls, i.e., for comparison. […] Two different in vitro assays were used to assess cell viability following Rh-123 treatment, namely, • i) colony formation by a clonal assay procedure ([…], Ham R G: Clonal growth of human keratinocytes with small amounts of dialyzed serum, In Vitro 16:526-538, 1980); and • ii) viability of cells determined by the MTT assay utilizing previously described techniques (Alley […], Monks A, et al.: Feasibility of drug screening with panels of human tumor cell lines using a microculture tetrazolium assay, Cancer Res 40:589-601, 1988). Clonogenic potential of the treated human prostate cancer cells was determined on 24-hour-old cells seeded in 60 mm disposable dishes (1-2×10^2 cells/dish). […]

[7] = tested on: LNCaP prostate cancer cells; test: Clonogenic assay (colony growth), LNCaP; type: cell-based, human
Excerpt: as §3

[8] = tested on: DU-145 prostate cancer cells; test: Clonogenic assay (colony growth), DU-145; type: cell-based, human
Excerpt: as §3

[9] = tested on: normal human adult prostate fibroblasts (NPF); test: Clonogenic assay (colony growth), NPF; type: cell-based
Excerpt: as §3

[10] = tested on: metastatic hormone-refractory prostate cancer; test: Phase I study: prostate specific acid phosphatase in blood after a single dose; type: in vivo, human; conditions: Patient 4, Level II (24 mg/m^2), single infusion
Experimental: The FDA has approved human clinical Phase I study of Rh-123. This phase evaluates the toxicity of Rh-123. The objective of the study is to determine safe dosing levels for Rh-123 starting at a level known to be safe for animals (about 0.3 mg/kg, which is equivalent to about 12 mg/m^2 for the typical prostate cancer patent), and proceeding upward in dosage until signs of moderate toxicity are observed. The Phase I study includes 21 volunteer patients with metastatic hormone-refractory prostate cancer to establish toxicity in a single dose escalation schedule. Only one dose per volunteer participant has been approved to date by the FDA, starting at 12 mg/m^2 at level I (three participants per level), and increasing in subsequent levels until dose-limiting toxicity is observed. Using a solution of four milligrams of Rh-123 per milliliter of a solution which includes 5% alcohol and 5% glucose in distilled water, the FDA has approved the dose escalation schedule shown in Table I: [table] As of the date of this application for patent, seven patients have been treated in accordance with the protocol described above.

[11] = tested on: transplantable rat prostate tumor R3327-H (Dunning); conditions: saline suspension, s.c. every other day, 15 mg/kg body weight; cited from earlier work
[12] = tested on: transplantable tumor P-A III; conditions: cited from earlier work

COC(=O)c1ccccc1-c1c2ccc(=N)cc-2oc2cc(N)ccc12.Cl [Rh-123, methyl o-(6-amino-3-imino-3H-xanthen-9-yl) benzoate monohydrochloride]
mortality (Swiss Webster mice; 15 mg/kg Rh-123 in 50% DMSO, group of five mice): one of five mice died | mortality (Swiss Webster mice; 20 mg/kg Rh-123 in 50% DMSO, group of five mice): Three of five mice died | mortality (Swiss Webster mice; 20 mg/kg Rh-123 in alcohol-glucose solution): no mortality | effect on normal surrounding tissue [1]: no change | gross changes in the tumor mass of the prostate complex [1]: No gross changes | microscopic examination of tumor tissue of prostate complex ([1]; sacrificed 1 week after last dose): marked cellular and acinar destruction, pyknosis, cytoplasmic smearing, and intraepithelial cyst formation | recovery of treated cells in Rh-123-free normal growth medium ([2]; PC-3): poor | relative sensitivity to Rh-123 exposure among the cancer cell lines ([2]; PC-3): most sensitive | loss of viable cells ([2]; PC-3, exposed 2 days or longer, concentrations as low as 1.25–2 μg/ml): marked | recovery of treated cells in Rh-123-free normal growth medium [3]: poor | loss of viable cells ([3]; exposed 2 days or longer, concentrations as low as 1.25–2 μg/ml): marked | recovery of treated cells in Rh-123-free normal growth medium ([4]; DU-145): poor | relative sensitivity to Rh-123 exposure among the cancer cell lines ([4]; DU-145): more refractory than either the PC-3 or the LNCaP cells | loss of viable cells ([4]; DU-145, exposed 2 days or longer, concentrations as low as 1.25–2 μg/ml): marked | growth inhibition due to Rh-123 treatment ([5]; 0–80 μg/ml, FIG. 5): much less than that observed with tumorigenic cells | viability of cells ([5]; after prolonged Rh-123 exposures): remained relatively high | suppression of colony growth ([6]; PC-3, 10 μg/ml for 72 hours): Complete suppression | colony growth ([6]; PC-3, exposure to 10 μg/ml): greatly suppressed | suppression of colony growth ([7]; 10 μg/ml for 72 hours): Complete suppression | colony growth ([7]; exposure to 10 μg/ml): greatly suppressed | suppression of colony growth ([8]; DU-145, 10 μg/ml for 72 hours): Complete suppression | growth suppression (colony growth) ([8]; DU-145, compared with PC-3 and LNCaP): less marked | maximal suppression of colony growth ([9]; 72-hour exposure): 28 % of control | suppression of colony growth ([9]; 72-hour exposure to 50 μg/ml (data not shown)): Total suppression was not achieved | course of prostate specific acid phosphatase in blood after 48 hours [10]: steadily decreased until two months after the infusion | effect on tumor (histology) [11]: significant destructive alteration of the acinar cells | effect on tumor cells ([12]; Rh-123 dissolved in DMSO): significant destruction of tumor cells | sensitivity of tumor to Rh-123 ([12]; Rh-123 dissolved in DMSO): highly sensitive | toxicity in normal cells ([12]; rat, in vivo): no toxicity noted | tumor growth after injection of tumor remnants into untreated susceptible L-W rats ([12]; remnants of Rh-123-treated tumor): no tumor growth
